Entries after “also recorded” stand apart in the source; their conditions may differ.
Columns and labels:
Trypsin = target: T1, Trypsin (Sus scrofa, UniProt P00761); test: Specificity test, photometric pNA peptide substrate assay: trypsin; type: biochemical, hog; settings: 100 μM compound; substrate Bz-FVR-pNA; 25° C.
T1 construct: Trypsin from hog pancreas; purchased Fluka Chemie AG; host or cells: hog pancreas
Description: (§1) To check the specificity of a compound found to have an inhibitory effect on human neurotrypsin, standard enzyme kinetic measurements with a set of common serine proteases were performed. A standard photometric assay with commercially available proteases and para-nitroanilide-coupled small peptide substrates was used.
Trypsin from hog pancreas (16099 U/mg; Fluka Chemie AG, CH-9471 Buchs, Switzerland).
(§2) Bz-FVR-pNA: N-Benzoyl-Phe-Val-Arg-p-nitroanilide HCl, Bachem AG, CH-4416 Bubendorf, Switzerland.
(§3) The assay was performed in 100 mM Tris-HCl, 150 mM NaCl, 1 mM CaCl2, 5% DMSO, 0.1% PEG 6000, pH 8.0, with the appropriate amount of protease to measure initial velocities and varying amounts of peptide-p-nitroanilide substrates in a range smaller than 0.1 times KM. For inhibition studies 100 μM compound No. 7 were used. Measurements were done at 25° C. in a Cary 50 Spectrophotometer (VARIAN). Initial velocities were determined using various substrate concentrations below 0.1 times KM to be in the range of direct dependency of the initial velocity from the substrate concentration. Initial velocities were plotted against substrate concentrations in the absence or the presence of the candidate inhibitor No. 7. The compound was used in a concentration of 100 μM.

Plasmin = target: T2, Plasmin (Homo sapiens, UniProt P00747); test: Specificity test, photometric pNA peptide substrate assay: plasmin; type: biochemical; settings: 100 μM compound; substrate N-Tosyl-GPK-pNA; 25° C.
T2 construct: Plasmin from human plasma; purchased Sigma Aldrich Chemie GmbH; host or cells: human plasma
Description: as §1
(§4) Kallikrein from porcine pancreas (43 U/mg solid; Sigma Aldrich Chemie GmbH). Plasmin from human plasma (3.2 U/mg solid; Sigma Aldrich Chemie GmbH).
N-Tosyl-GPK-pNA: N-Tosyl-Gly-Pro-Lys-p-nitroanilide, #90178, Fluka Chemie AG.
as §3

Thrombin = target: T3, Thrombin (Bos taurus, UniProt P00735); test: Specificity test, photometric pNA peptide substrate assay: thrombin; type: biochemical, bovine; settings: 100 μM compound; substrate Bz-FVR-pNA; 25° C.
T3 construct: Thrombin from bovine plasma; purchased Merck; host or cells: bovine plasma
Description: as §1
(§5) Thrombin from bovine plasma (50 NIH/mg, Merck, D-64271 Darmstadt, Germany). Urokinase HS medac (100000 I.E.; medac Gesellschaft für klinische Spezialpräparate mbH, D-22880 Wedel, Germany).
as §2, §3

neurotrypsin = target: T4, neurotrypsin (Homo sapiens, UniProt P56730); test: Western blot-based screening assay for neurotrypsin inhibitors (agrin-EGFP cleavage); type: biochemical; settings: inhibitor 25 or 150 μM; agrin-EGFP substrate; 3 h at 37° C.; intensity of 150-kDa fragment on Western blot
T4 construct: Human or murine neurotrypsin or catalytically active truncated versions of neurotrypsin are used; made in house; host or cells: mouse myeloma cell line J558L
T4 sequence (P56730 21-875): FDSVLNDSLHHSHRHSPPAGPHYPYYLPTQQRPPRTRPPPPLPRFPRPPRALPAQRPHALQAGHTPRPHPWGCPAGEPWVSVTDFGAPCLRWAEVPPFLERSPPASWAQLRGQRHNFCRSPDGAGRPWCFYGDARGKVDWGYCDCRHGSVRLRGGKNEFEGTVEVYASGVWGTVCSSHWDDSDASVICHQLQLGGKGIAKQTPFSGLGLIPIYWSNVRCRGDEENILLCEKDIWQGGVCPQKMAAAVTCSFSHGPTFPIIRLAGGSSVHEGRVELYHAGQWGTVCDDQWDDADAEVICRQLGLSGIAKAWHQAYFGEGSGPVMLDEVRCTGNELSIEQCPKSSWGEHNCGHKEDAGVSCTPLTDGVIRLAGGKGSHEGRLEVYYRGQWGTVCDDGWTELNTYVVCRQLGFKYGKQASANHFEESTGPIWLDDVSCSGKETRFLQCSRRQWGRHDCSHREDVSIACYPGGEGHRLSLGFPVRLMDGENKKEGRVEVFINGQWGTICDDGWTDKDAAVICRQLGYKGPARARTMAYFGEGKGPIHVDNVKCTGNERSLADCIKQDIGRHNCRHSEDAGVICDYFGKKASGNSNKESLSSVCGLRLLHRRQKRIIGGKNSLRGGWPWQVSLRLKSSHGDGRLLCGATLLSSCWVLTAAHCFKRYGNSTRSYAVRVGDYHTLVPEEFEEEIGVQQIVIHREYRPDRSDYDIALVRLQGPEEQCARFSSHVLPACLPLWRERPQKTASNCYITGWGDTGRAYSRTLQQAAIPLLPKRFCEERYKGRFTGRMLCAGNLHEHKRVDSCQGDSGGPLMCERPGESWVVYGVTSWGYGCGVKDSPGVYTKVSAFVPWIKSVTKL
Description: Negative control (−): only agrin-EGFP without neurotrypsin. Positive control (+): agrin-EGFP with addition of neurotrypsin.
Compounds were dissolved in DMSO to a final concentration of 10 mM. For the assay the solution in DMSO was diluted with 10 mM MOPS, pH 7.5, to a concentration of 500 μM and 5% DMSO (1:20 dilution). Insoluble and precipitated material was removed by centrifugation (15 min, 16 krcf, RT). The cleared supernatant was used for the inhibition assay, as described in Example 27.
(§6) The inhibitory activity of small-molecule compounds on the catalytic activity of neurotrypsin is measured in 150 mM NaCl, 5 mM CaCl2, 5% DMSO, 0.1% PEG 6000, and 20 mM MOPS, pH 7.5 in 0.5 ml low protein-binding Eppendorf tubes in a total volume of 15 μl. Human or murine neurotrypsin or catalytically active truncated versions of neurotrypsin are used at a concentration that results in cleavage of 80% of the substrate within 3 hours. As substrate, engineered soluble agrin, for example 0.1-1 μM agrin-EGFP (Example 20) or 0.1-3 μM engineered agrin-C45 (Example 21), is used. […]
One way of substrate visualization is Western blotting. […] The intensity of the 150-kDa fragments of agrin-EGFP generated by neurotrypsin-mediated cleavage in the presence of the putative inhibitory compounds (FIG. 16 A) are measured and the relative intensities are plotted (FIG. 16 B).

Factor Xa = target: T5, Factor Xa (Bos taurus, UniProt P00743); test: Specificity test, photometric pNA peptide substrate assay: factor Xa; type: biochemical, bovine; settings: 100 μM compound; substrate Bz-IEGR-pNA; 25° C.
T5 construct: purchased Sigma Aldrich Chemie GmbH; host or cells: bovine plasma
Description: as §1
Factor Xa activated from bovine plasma (6.1 mg protein/ml; Sigma Aldrich Chemie GmbH, D-89552 Steinheim, Germany).
Bz-IEGR-pNA: S-2222, Chromogenix-Instrumentation Laboratory SpA, 1-20128 Milano, Italy.
as §3

Kallikrein = target: T6, Kallikrein (Sus scrofa, UniProt P00752); test: Specificity test, photometric pNA peptide substrate assay: kallikrein; type: biochemical, porcine; settings: 100 μM compound; substrate Bz-FVR-pNA; 25° C.
T6 construct: Kallikrein from porcine pancreas; purchased Sigma Aldrich Chemie GmbH; host or cells: porcine pancreas
Description: as §1, §4, §2, §3

tPA = target: T7, tPA (Homo sapiens, UniProt P00750); test: Specificity test, photometric pNA peptide substrate assay: tPA; type: biochemical; settings: 100 μM compound; substrate IPR-pNA; 25° C.
T7 construct: purchased Dr. Karl Thomae GmbH Actilyse (10 mg)
Description: as §1
tPA: Actilyse (10 mg; Dr. Karl Thomae GmbH, Birkendorfer Straβe 65, D-88397 Biberach, Germany).
IPR-pNA: S-2288, Chromogenix-Instrumentation Laboratory SpA.
as §3

Urokinase = target: T8, Urokinase (Homo sapiens, UniProt P00749); test: Specificity test, photometric pNA peptide substrate assay: urokinase; type: biochemical; settings: 100 μM compound; substrate Bz-VGR-pNA; 25° C.
T8 construct: purchased medac Gesellschaft für klinische Spezialpräparate mbH Urokinase HS medac (100000 I.E.)
Description: as §1, §5
Bz-VGR-pNA: N-Benzoyl-Val-Gly-Arg-p-nitroanilide, Sigma Aldrich Chemie GmbH.
as §3

mouse neurotrypsin = target: T9, mouse neurotrypsin (Mus musculus, UniProt O08762); test: Dose dependence of neurotrypsin inhibition (agrin-EGFP cleavage, Western blot); type: biochemical; settings: 0 to 200 μM compound; agrin-EGFP substrate; Western blot quantification; read-out: IC50 value (half-maximum amount of product)
T9 construct: made in house; host or cells: mouse myeloma cell line J558L
T9 sequence (O08762 22-761): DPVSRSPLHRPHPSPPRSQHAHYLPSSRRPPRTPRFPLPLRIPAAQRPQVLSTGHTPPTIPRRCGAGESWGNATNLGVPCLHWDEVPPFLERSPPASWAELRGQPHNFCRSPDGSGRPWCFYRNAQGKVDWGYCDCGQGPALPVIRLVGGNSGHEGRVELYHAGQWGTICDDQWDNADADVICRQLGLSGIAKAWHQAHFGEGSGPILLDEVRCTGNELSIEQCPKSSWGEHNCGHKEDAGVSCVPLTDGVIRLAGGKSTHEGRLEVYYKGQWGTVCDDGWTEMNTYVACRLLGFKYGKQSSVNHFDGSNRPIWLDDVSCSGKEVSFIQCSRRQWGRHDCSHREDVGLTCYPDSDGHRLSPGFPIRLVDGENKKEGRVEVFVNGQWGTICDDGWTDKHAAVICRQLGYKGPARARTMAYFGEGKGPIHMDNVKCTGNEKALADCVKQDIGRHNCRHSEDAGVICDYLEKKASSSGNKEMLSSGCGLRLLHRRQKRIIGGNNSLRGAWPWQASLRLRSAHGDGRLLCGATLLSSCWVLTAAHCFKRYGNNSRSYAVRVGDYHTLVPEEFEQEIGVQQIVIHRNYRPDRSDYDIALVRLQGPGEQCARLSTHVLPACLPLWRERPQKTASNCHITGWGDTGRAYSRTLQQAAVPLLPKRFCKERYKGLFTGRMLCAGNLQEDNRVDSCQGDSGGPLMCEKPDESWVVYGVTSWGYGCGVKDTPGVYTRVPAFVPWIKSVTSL
Text: (A) Western blot detection of the 150 kDa C-terminal fragment of agrin (Ag-CF) generated by neurotrypsin-mediated cleavage of agrin-EGFP in dependence of the concentration of compound No. 7, N^1-amidino-N^4-(3,5-dibromosalicylidene)-sulfanilamide.
(B) Graphic plot of the intensity data from (A) against the inhibitor concentration with I=100% intensity for agrin+mouse neurotrypsin without addition of inhibitor compound No. 7.
as §6, with “used. Inhibitor solution in 10 mM MOPS, pH 7.5, containing 5% DMSO is added to a final concentration of either 25 or 150 μM.” for “used.”
Different concentrations of compound No. 7 from 0 to 200 μM were tested with the assay described in Example 27 with engineered agrin-EGFP as substrate. The generated product was detected by Western blot (FIG. 17 A) and quantified (FIG. 17 B).

T7 sequence (P00750 36-562): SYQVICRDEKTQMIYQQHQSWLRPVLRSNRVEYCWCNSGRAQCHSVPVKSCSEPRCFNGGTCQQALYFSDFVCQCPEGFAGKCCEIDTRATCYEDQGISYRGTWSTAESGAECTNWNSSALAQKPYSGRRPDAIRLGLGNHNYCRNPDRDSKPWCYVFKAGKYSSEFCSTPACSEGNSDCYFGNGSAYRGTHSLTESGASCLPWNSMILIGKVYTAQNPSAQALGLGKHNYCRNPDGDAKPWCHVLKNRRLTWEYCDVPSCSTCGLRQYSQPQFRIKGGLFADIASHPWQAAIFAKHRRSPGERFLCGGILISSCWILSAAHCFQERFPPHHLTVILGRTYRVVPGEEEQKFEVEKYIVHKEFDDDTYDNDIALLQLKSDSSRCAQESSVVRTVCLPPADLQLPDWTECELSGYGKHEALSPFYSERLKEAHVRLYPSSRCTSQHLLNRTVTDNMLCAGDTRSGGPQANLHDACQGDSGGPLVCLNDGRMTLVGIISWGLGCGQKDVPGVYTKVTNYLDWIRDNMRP
T5 sequence (P00743 234-492 limits assumed): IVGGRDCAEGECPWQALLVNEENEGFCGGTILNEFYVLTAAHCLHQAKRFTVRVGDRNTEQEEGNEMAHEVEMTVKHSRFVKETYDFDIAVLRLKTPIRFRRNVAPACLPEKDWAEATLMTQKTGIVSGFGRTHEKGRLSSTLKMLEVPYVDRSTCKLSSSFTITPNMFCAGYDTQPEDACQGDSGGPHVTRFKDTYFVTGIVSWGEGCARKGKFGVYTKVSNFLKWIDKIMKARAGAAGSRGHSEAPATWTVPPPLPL
T5 sequence (P00743 41-180 limits assumed): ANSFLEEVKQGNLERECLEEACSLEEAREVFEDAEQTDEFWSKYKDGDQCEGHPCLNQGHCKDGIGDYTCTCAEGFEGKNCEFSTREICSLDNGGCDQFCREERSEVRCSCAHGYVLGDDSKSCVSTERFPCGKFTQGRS
T2 sequence (P00747 581-810 limits assumed): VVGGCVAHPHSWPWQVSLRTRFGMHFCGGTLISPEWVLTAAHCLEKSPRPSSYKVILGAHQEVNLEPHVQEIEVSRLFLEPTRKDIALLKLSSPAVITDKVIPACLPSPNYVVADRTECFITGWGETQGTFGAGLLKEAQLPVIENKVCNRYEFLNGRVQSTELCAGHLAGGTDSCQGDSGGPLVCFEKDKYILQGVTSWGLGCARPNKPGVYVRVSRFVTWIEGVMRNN
T2 sequence (P00747 97-580 limits assumed): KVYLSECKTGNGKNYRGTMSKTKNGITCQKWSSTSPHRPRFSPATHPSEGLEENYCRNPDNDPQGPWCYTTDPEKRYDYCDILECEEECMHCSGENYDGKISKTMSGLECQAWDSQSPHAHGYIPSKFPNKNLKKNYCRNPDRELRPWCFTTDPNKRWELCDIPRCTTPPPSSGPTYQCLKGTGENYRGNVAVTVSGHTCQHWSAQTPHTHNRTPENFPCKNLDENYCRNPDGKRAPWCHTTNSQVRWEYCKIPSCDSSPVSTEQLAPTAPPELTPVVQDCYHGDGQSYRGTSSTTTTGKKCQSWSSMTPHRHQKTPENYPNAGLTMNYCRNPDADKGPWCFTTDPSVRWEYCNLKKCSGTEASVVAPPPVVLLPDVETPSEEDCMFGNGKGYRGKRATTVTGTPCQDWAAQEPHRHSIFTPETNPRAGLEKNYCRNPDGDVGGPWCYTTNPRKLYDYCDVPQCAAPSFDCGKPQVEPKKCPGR
T1 sequence (P00761 9-231): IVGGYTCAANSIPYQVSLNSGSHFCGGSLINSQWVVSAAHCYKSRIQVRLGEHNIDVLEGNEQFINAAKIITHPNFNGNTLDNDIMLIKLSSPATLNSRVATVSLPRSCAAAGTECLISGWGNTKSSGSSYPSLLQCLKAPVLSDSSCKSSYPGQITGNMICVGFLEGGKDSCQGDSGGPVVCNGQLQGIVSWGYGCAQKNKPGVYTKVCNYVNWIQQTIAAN
T6 sequence (P00752 8-246): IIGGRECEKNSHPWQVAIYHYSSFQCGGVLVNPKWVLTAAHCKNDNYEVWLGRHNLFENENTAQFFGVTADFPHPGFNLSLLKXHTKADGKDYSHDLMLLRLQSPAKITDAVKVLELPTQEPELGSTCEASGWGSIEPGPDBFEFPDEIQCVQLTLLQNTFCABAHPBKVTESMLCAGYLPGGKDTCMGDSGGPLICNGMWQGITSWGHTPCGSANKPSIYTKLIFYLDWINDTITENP

Compound: N=C(N)NS(=O)(=O)c1ccc(N=Cc2cc(Br)cc(Br)c2O)cc1 [Compound No. 7, N^1-amidino-N^4-(3,5-dibromosalicylidene)-sulfanilamide]
- inhibition of trypsin (initial velocities) (Trypsin): None of the investigated enzymes showed a significant inhibition; also recorded: No inhibition
- inhibition of plasmin (initial velocities) (Plasmin): None of the investigated enzymes showed a significant inhibition; also recorded: No inhibition
- inhibition of thrombin (initial velocities) (Thrombin): None of the investigated enzymes showed a significant inhibition; also recorded: No inhibition
- inhibitory activity on neurotrypsin (neurotrypsin): significant inhibitory activity
- inhibition of factor Xa (initial velocities) (Factor Xa): None of the investigated enzymes showed a significant inhibition; also recorded: No inhibition
- inhibition of kallikrein (initial velocities) (Kallikrein): None of the investigated enzymes showed a significant inhibition; also recorded: No inhibition
- inhibition of tPA (initial velocities) (tPA): None of the investigated enzymes showed a significant inhibition; also recorded: No inhibition
- inhibition of urokinase (initial velocities) (Urokinase): None of the investigated enzymes showed a significant inhibition; also recorded: No inhibition
- IC50 (mouse neurotrypsin): ~60 µM

Reference: patent publication US7897364B2, “Method for determining inhibitors of neurotrypsin” (University of Zurich, priority 2005, dated 2011)
